Measurements as given in patent US20110281807A1, “PLANT DISEASE CONTROL AGENT COMPRISING D-TAGATOSE AS ACTIVE INGREDIENT, AND PLANT DISEASE CONTROL METHOD” (NATIONAL UNIVERSITY CORPORATION KAGAWA UNIVERSITY, priority 2008, published 2011).
Read-outs that look alike come from different tables or passages of the source.

Columns and labels:
[1] = tested on: Pythium aphanidermatum; experiment: cucumber damping-off, pot test: soil drench of D-tagatose combined with fungicides; conditions: for Preventive value: alone, 50 ppm, soil drench
Procedure: Five seeds of test plants (cucumber, variety: Sagami hanpaku) were sowed in a pot (5×5 cm), which contains infested soil with Pythium aphanidermatum (mycelium 100 g/1 L soil) and was covered with soil. D-Tagatose was diluted to 5000 ppm and the fungicides were diluted to the concentrations listed in table 18, with distilled water. The pot was drenched with 10 ml of the dilution. After 2 weeks, the disease severity of the test plants was observed and the effectiveness of test sample was judged. Tests were carried out in triplicate using 5 plants for each test set and the preventive value was calculated from the germination rate.

[2] = tested on: Botrytis cinerea
[3] = tested on: Pseudoperonospora cubensis; conditions: for Preventive value: alone
Procedure: Test plants (cucumber, variety: Sagami hanpaku) were seeded and grown until the one true leaf stage. D-Tagatose was diluted to 5000 ppm and the fungicides were diluted to the concentrations listed in table 14, with distilled water. And then 10 ml of the dilution was sprayed on the test plant. Three days after spraying of the solution, a sporangium suspension of Pseudoperonospora cubensis containing 1×10^3/ml were inoculated by spraying on test plants and then put for 16 hours in an inoculation chamber (20° C. to 23° C.) to promote disease. Seven days after inoculation the disease severity of the test plants was observed and the effectiveness of the test sample was judged. Tests were carried out using two plants for each test set and the disease severity of the test plants was judged in accordance with the following criteria. The preventive value was calculated from the degree of disease severity.
0 (No lesion) 1 (Lesion area was not more than 40%) 2 ((Lesion area was 40%-80%) 3 (Lesion area was not less than 80%)
Preventive value=100{1−(n/N)} N=disease severity of untreated leaf, n=disease severity of the test leaf Synergistic effect was determined by Colby's equation.

[4] = tested on: Puccinia recondita
Procedure: Test plants (variety: Nourin 61 gou) were sowed and grown until two leaves stage.
D-Tagatose and fungicide were diluted to 10000 ppm and the concentration listed in table 19, respectively, with distilled water, and 10 ml of the dilution was sprayed thoroughly on the plants. Three days after the spraying of the dilution, the plants were inoculated with Puccinia recondita containing 1×10^3/ml and then put for 16 hours in an inoculation chamber (20° C. to 23° C.) to promote disease. Seven days after inoculation the disease severity of the test plants was observed and the effectiveness of test sample was judged.

[5] = tested on: Phytophthora infestans; experiment: whole plant or invertebrate; assay type: in vivo; conditions: for Preventive value: alone
[6] = tested on: Pyricularia oryze; experiment: whole plant or invertebrate; assay type: in vivo
[7] = tested on: Pseudoperonospora cubensis; conditions: for Preventive value: alone, curative
Procedure: Test plants (cucumber, variety: Sagami hanpaku) were seeded and grown until the one true leaf stage. And then, a sporangium suspension of Pseudoperonospora cubensis containing 1×10^3/ml were spraying for inoculation on the back side of the leaves of test plants and then put for 16 hours in an inoculation chamber (20° C. to 23° C.) to promote disease. For a curative test, the inoculated plants as described above were used.
D-Tagatose was diluted to 5000 ppm and the fungicides were diluted to the concentrations listed in table 15, with distilled water, and 10 ml of the dilution was sprayed. Seven days after inoculation the disease severity of the test plants was observed and the effectiveness of test sample was judged.

[8] = tested on: Sphaerotheca fuliginea
Procedure: Test plants (cucumber, variety: Sagami hanpaku) were seeded and grown until the one true leaf stage. D-Tagatose and fungicide were diluted to 5000 ppm and the concentrations listed in table 20, respectively, with distilled water and 10 ml of the dilution was sprayed thoroughly on the plants. Three days after spraying, a condia suspension containing of Sphaerotheca fuliginea were inoculated by spraying on test plants.
Seven days after inoculation the disease severity of the test plants was observed and the effectiveness of test sample was judged.

[9] = tested on: Erysiphe graminis f.sp. hordei
[10] = tested on: Plasmopara viticola; conditions: for Preventive value: alone
[11] = Botrytis cinerea, in Solanum lycopersicum, 168 h, read-out: Preventive value
[12] = Pseudoperonospora cubensis, in Cucumis sativus, 168 h, read-out: Preventive value
[13] = Puccinia recondita, in Triticum aestivum, 168 h, read-out: Preventive value
[14] = Phytophthora infestans, in Solanum lycopersicum, 168 h, read-out: Preventive value
[15] = Pythium aphanidermatum, in Cucumis sativus, soil, 336 h, read-out: Preventive value
[16] = Podosphaera fuliginea, in Cucumis sativus, 168 h, read-out: Preventive value
[17] = Blumeria graminis, in Hordeum vulgare, 168 h, read-out: Preventive value
[18] = Plasmopara viticola, 168 h, read-out: Preventive value
[19] = Pyricularia, in Oryza sativa, 168 h, read-out: Preventive value

Cc1c(Br)c2ccc(F)cc2n1S(=O)(=O)c1ncn(S(=O)(=O)N(C)C)n1 [amisulbrom]
Preventive value [1]: 83

CO/C=C(/C(=O)OC)c1ccccc1Oc1cc(Oc2ccccc2C#N)ncn1 [azoxystrobin]
Preventive value ([2]; tomato, compound alone, 50 ppm): 50 | Preventive value ([3]; 10 ppm): 50 | Preventive value ([4]; wheat, compound alone, 2 ppm): 83 | Preventive value ([5]; 10 ppm): 83 | Preventive value ([6]; rice, compound alone, 10 ppm): 83 | Preventive value [1]: 50 | Preventive value ([7]; 10 ppm): 50 | Preventive value ([8]; cucumber, compound alone, 0.4 ppm): 67 | Preventive value ([9]; barley, compound alone, 0.4 ppm): 50 | Preventive value ([10]; 10 ppm): 83

CC(C)OC(=O)N[C@H](C(=O)N[C@H](C)c1nc2ccc(F)cc2s1)C(C)C [benthiavalicarb-isopropyl]
pest or weed control at 250 ppm [2, 11]: 0% | pest or weed control at 0.4 ppm [3, 12]: 73% | pest or weed control at 250 ppm [4, 13]: 0% | pest or weed control at 0.4 ppm [5, 14]: 73% | pest or weed control at 250 ppm [1, 15]: 0% | pest or weed control at 0.4 ppm [7, 12]: 33% | pest or weed control at 250 ppm [8, 16]: 0% | pest or weed control at 250 ppm [9, 17]: 0% | pest or weed control at 0.4 ppm [10, 18]: 50%

O=C(Nc1ccccc1-c1ccc(Cl)cc1)c1cccnc1Cl [boscalid]
pest or weed control at 10 ppm [2, 11]: 67% | pest or weed control at 2 ppm [4, 13]: 67% | pest or weed control at 0.4 ppm [8, 16]: 67% | pest or weed control at 0.4 ppm [9, 17]: 17%

N#Cc1c(Cl)c(Cl)c(Cl)c(C#N)c1Cl [chlorothalonil]
pest or weed control at 50 ppm [2, 11]: 67% | pest or weed control at 50 ppm [3, 12]: 83% | pest or weed control at 50 ppm [4, 13]: 83% | pest or weed control at 50 ppm [5, 14]: 83% | pest or weed control at 50 ppm [7, 12]: 0% | pest or weed control at 50 ppm [8, 16]: 50% | pest or weed control at 50 ppm [9, 17]: 33% | pest or weed control at 50 ppm [10, 18]: 73%

[Cu+2].[OH-].[OH-] [cupric hydroxide]
Preventive value ([3]; 50 ppm): 40 | Preventive value ([5]; 50 ppm): 50 | Preventive value ([7]; 50 ppm): 0 | Preventive value ([10]; 50 ppm): 0

Cc1ccc(-c2c(Cl)nc(C#N)n2S(=O)(=O)N(C)C)cc1 [cyazofamid]
pest or weed control at 250 ppm [2, 11]: 0% | pest or weed control at 0.4 ppm [3, 12]: 73% | pest or weed control at 250 ppm [4, 13]: 0% | pest or weed control at 0.4 ppm [5, 14]: 17% | pest or weed control at 250 ppm [6, 19]: 0% | pest or weed control at 50 ppm [1, 15]: 83% | pest or weed control at 0.4 ppm [7, 12]: 0% | pest or weed control at 250 ppm [8, 16]: 0% | pest or weed control at 250 ppm [9, 17]: 0% | pest or weed control at 0.4 ppm [10, 18]: 50%

O=C(Cc1ccccc1)N/C(=N\OCC1CC1)c1c(C(F)(F)F)ccc(F)c1F [cyflufenamid]
pest or weed control at 0.4 ppm [8, 16]: 50% | pest or weed control at 0.4 ppm [9, 17]: 67%

CCNC(=O)NC(=O)/C(C#N)=N/OC [cymoxanil]
pest or weed control at 50 ppm [3, 12]: 33% | pest or weed control at 50 ppm [5, 14]: 83% | pest or weed control at 250 ppm [1, 15]: 17% | pest or weed control at 50 ppm [7, 12]: 83% | pest or weed control at 50 ppm [10, 18]: 73%

Cc1cc(C2CC2)nc(Nc2ccccc2)n1 [cyprodinil]
pest or weed control at 10 ppm [2, 11]: 73% | pest or weed control at 250 ppm [3, 12]: 0% | pest or weed control at 250 ppm [4, 13]: 67% | pest or weed control at 250 ppm [5, 14]: 0% | pest or weed control at 250 ppm [6, 19]: 73% | pest or weed control at 250 ppm [1, 15]: 0% | pest or weed control at 250 ppm [7, 12]: 0% | pest or weed control at 10 ppm [8, 16]: 67% | pest or weed control at 10 ppm [9, 17]: 17% | pest or weed control at 250 ppm [10, 18]: 0%

COc1ccc(C(=CC(=O)N2CCOCC2)c2ccc(Cl)cc2)cc1OC [dimethomorph]
pest or weed control at 10 ppm [3, 12]: 67% | pest or weed control at 10 ppm [5, 14]: 73% | pest or weed control at 250 ppm [1, 15]: 0% | pest or weed control at 10 ppm [7, 12]: 40% | pest or weed control at 10 ppm [10, 18]: 50%

CSC1=N[C@@](C)(c2ccccc2)C(=O)N1Nc1ccccc1 [fenamidone]
pest or weed control at 2 ppm [3, 12]: 33% | pest or weed control at 2 ppm [5, 14]: 83% | pest or weed control at 10 ppm [1, 15]: 50% | pest or weed control at 2 ppm [7, 12]: 33% | pest or weed control at 2 ppm [10, 18]: 83%

O=[N+]([O-])c1cc(C(F)(F)F)c(Cl)c([N+](=O)[O-])c1Nc1ncc(C(F)(F)F)cc1Cl [fluazinam]
pest or weed control at 50 ppm [2, 11]: 67% | pest or weed control at 10 ppm [3, 12]: 97% | pest or weed control at 50 ppm [4, 13]: 83% | pest or weed control at 10 ppm [5, 14]: 83% | pest or weed control at 10 ppm [6, 19]: 50% | pest or weed control at 10 ppm [7, 12]: 0% | pest or weed control at 250 ppm [8, 16]: 83% | pest or weed control at 250 ppm [9, 17]: 83% | pest or weed control at 10 ppm [10, 18]: 83%

N#Cc1c[nH]cc1-c1cccc2c1OC(F)(F)O2 [fludioxonil]
pest or weed control at 2 ppm [2, 11]: 67% | pest or weed control at 10 ppm [3, 12]: 57% | pest or weed control at 50 ppm [4, 13]: 17% | pest or weed control at 10 ppm [5, 14]: 0% | pest or weed control at 50 ppm [6, 19]: 83% | pest or weed control at 250 ppm [1, 15]: 0% | pest or weed control at 10 ppm [7, 12]: 0% | pest or weed control at 250 ppm [8, 16]: 73% | pest or weed control at 250 ppm [9, 17]: 73% | pest or weed control at 10 ppm [10, 18]: 33%
